Test results as given in article PMC10590756, “Glutarate regulates T cell metabolism and anti-tumour immunity” (Nature Metabolism, 2023).

What was measured:
human CD8^+ T cells = test: Isotope tracing of ^13C5-labelled DEG and intracellular glutarate by LC-tandem MS; type: in vitro ADME
Procedure: To affirm that exogenous administration of DEG leads to increased intracellular glutarate levels, we performed isotope tracing of human CD8^+ T cells treated with ^13C5-labelled DEG.
Cells were counted to determine viable cell numbers (Fig. 1f,h,i and Extended Data Fig. g,h,k). A total of 0.5–2 × 10^6 viable cells were collected, washed with cold PBS and metabolic activity was quenched by freezing samples in dry ice and ethanol, and stored at −80 °C. Metabolites were extracted by adding 150 μl ice-cold 1:1 (vol/vol) methanol/water (containing 1 mM N-cyclohexyl-2-aminoethanesulfonic acid (CHES) as an internal standard) to the cell pellets; samples were transferred to a chilled microcentrifuge tube containing 150 μl chloroform and […] (750 μl total in 3:1:1 vol/vol methanol/water/chloroform). Samples were sonicated in a water bath for 8 min at 4 °C, and centrifuged (13,000g) for 10 min at 4 °C. The supernatant containing the extract was transferred to a new tube for evaporation using TurboVap LV (Biotage), resuspended in 3:3:1 (vol/vol/vol) methanol/water/chloroform (350 μl total) to phase-separate polar metabolites from apolar metabolites and centrifuged. The aqueous phase was transferred to a new tube for evaporation using TurboVap LV, washed with 60 μl methanol and dried again. Evaporated extracts were dissolved in 100 µl MeOH–50% water, before injection on the machine. Isotopically labelled glutarates were determined by liquid chromatography (LC)–tandem mass spectrometry (tandem MS) on a Waters ACQUITY UPLC system coupled to a Xevo-TQ-XS mass spectrometer. […] The column was subsequently washed in 75% A for 2.5 min and re-equilibrated at initial conditions for 3 min. MS analyses were performed in multiple reaction monitoring (MRM) mode, with positive electrospray ionization (ESI) from minute 0 – 1.4 and negative electrospray ionization (ESI) from minute 1.4 to minute 4.7. Positive ESI was conducted according to the following parameters: capillary potential 3 kV, source offset 30 V, cone voltage 15 V, source temperature 150 °C, desolvation temperature 600 °C, cone gas flow 150 l h^−1, desolvation gas flow, 1,000 l h^−1, nebulizer 7 bar and collision gas flow 0.17 ml min^−1. Negative ESI was operated under the same conditions but with a capillary potential set to 2 kV and a cone voltage set to 20 V. Acquisition was performed using MRM with the mass transitions and parameters illustrated in Supplementary Table 4. […]
Cells were counted to determine the viable cell numbers (Extended Data Fig. 1i,n). […]
Glutarate was determined by LC–tandem MS on a Waters ACQUITY UPLC system coupled to a Xevo-TQ-S mass spectrometer (Waters). […]

B16F10-OVA cancer cells = test: In vitro cytotoxicity of OT1 CD8^+ T cells; type: cell-based, mouse; conditions: T cells cultured 7 days with 500 µM DEG
Procedure: Ten thousand B16F10-OVA or SKOV3 cells were seeded per well in 96-well plates and cocultured for a minimum of 14 h with varying ratios of mouse CD8^+ OT1 or human CD8^+RQR8^+ HER2 CAR T cells, respectively. T cells had been treated with or without DEG 7 days before the assay. Wells were washed twice with PBS to remove T cells and the number of remaining target cells was determined by culturing with 10 µg ml^−1 resazurin (catalogue no. R7017, Sigma-Aldrich) and measuring the fluorescence signal in a plate reader. Cytotoxicity was calculated relative to wells with no T cells added. Ten thousand Raji cells were cocultured for a minimum of 14 h with CD19 CAR T cells previously activated for 7 days and cultured with or without DEG. Cytotoxicity was assessed by flow cytometry using the ratio of live Raji cells to CountBright Absolute Counting Beads (catalogue no. C36950, Thermo Fisher Scientific). To determine specific cytotoxicity, data were normalized to the cytotoxicity of the vector-controlled transduced CD8 T cells of the respective donor.

In the case of CCOC(=O)CCCC(=O)OCC [DEG, Diethyl glutarate], the “time of conversion of DEG to glutarate intracellularly” value (human CD8^+ T cells) is reported as ≤ 15 min, the “increase of measured intracellular glutarate concentrations” value (human CD8^+ T cells; 500 µM DEG, 7 days) is reported as “approximately twofold” and the “intracellular DEG” value (human CD8^+ T cells; 15 min after administration of the labelled compound) is reported as “could not be detected”. The “conversion of DEG into intracellular glutarate after uptake” value (human CD8^+ T cells; ^13C5-labelled DEG) was “very rapidly converted into intracellular glutarate” and the “killing of B16F10-OVA cancer cells by OT1 CD8^+ T cells” value (B16F10-OVA cancer cells) was “more proficient at killing”.
